Experimental data from the OligoGym collection.
After the bases stand the sugars from the 5' end (letter, count) and the backbone: PS all phosphorothioate, else s phosphorothioate and o phosphodiester by linkage. Methylation of C is not given here. e = 2'-O-(2-methoxyethyl) (MOE); k = constrained ethyl (cEt); d = 2'-deoxy (DNA); m = 2'-O-methyl

Target: HSD17B13
Details: ASO, HepaRG

Sequence	target mRNA inhibition (1 µM)	also measured
AAGGAGTATGACAACT (sugars k3 d10 k3, PS)	28%	–
AAGGCCTGAAGTTCTG (sugars k3 d10 k3, PS)	5%	–
AAGTATTCCATCTATC (sugars k3 d10 k3, PS)	52%	–
AAGTTAGCCCCCAGGA (sugars kkdddddddddkekek, PS)	12%	–
AAGTTAGTATAGTTAT (sugars k3 d10 k3, PS)	20%	–
AAGTTATTATCCCCAC (sugars k3 d10 k3, PS)	60%	–
AAGTTCTGATGTCAGA (sugars k3 d10 k3, PS)	7%	–
AATAACTGTTCTCCCC (sugars k3 d10 k3, PS)	20%	–
AATAATAGCTCTATTG (sugars k3 d1 m1 d8 k3, PS)	16%	–
AATAATAGCTCTATTG (sugars k3 d10 k3, PS)	0%	–
AATAATGGGCAGAGCT (sugars k3 d10 k3, PS)	43%	–
AATACAGGCCATAATC (sugars k3 d10 k3, PS)	16%	–
AATAGCCAGTACAGTT (sugars k3 d9 k3 e1, PS)	61%	–
AATATAGCCCTTTCCC (sugars k3 d10 k3, PS)	44%	–
AATATCCCACAGAACC (sugars k3 d10 k3, PS)	60%	–
AATATGGGATGAGGTA (sugars k3 d10 k3, PS)	53%	–
AATATTGAGGCACTGG (sugars kkdddddddddkekek, PS)	29%	–
AATGCTACTTGAACAG (sugars k3 d9 k3 e1, PS)	50%	–
AATGTATCTTATAAGA (sugars k3 d10 k3, PS)	10%	–

Sequence	target mRNA inhibition (1 µM)	also measured
AATGTCTTGGTAATCT (sugars k3 d10 k3, PS)	20%	–
AATTAAGATGTCCAGG (sugars k3 d10 k3, PS)	13%	–
AATTCACCTTGACTAA (sugars k3 d10 k3, PS)	9%	–
AATTCATAAGTAGTCT (sugars k3 d10 k3, PS)	28%	–
AATTGATACACCAATG (sugars k3 d1 m1 d8 k3, PS)	40%	–
AATTGATACACCAATG (sugars k3 d9 k3 e1, PS)	53%	–
AATTGATACACCAATG (sugars k3 d10 k3, PS)	55%	–
AATTTTCAGATCCCGT (sugars k3 d10 k3, PS)	74%	–
ACAAGTAAGGTAAAGT (sugars k3 d10 k3, PS)	38%	–
ACAATACAGGATAGAG (sugars k3 d10 k3, PS)	23%	–
ACAAUATGGGATGAGG (sugars k3 d1 m1 d8 k3, PS)	70%	target mRNA inhibition (0.02 µM): 0%; target mRNA inhibition (0.078 µM): 2%; target mRNA inhibition (0.313 µM): 0%; target mRNA inhibition (1.25 µM): 48%; target mRNA inhibition (5 µM): 59%
ACACTAATGAATCATG (sugars k3 d10 k3, PS)	7%	–
ACAGACTGTTGAGCTC (sugars k3 d10 k3, PS)	53%	–
ACAGATTGGAATGCTA (sugars k3 d1 m1 d8 k3, PS)	70%	–
ACAGATTGGAATGCTA (sugars k3 d9 k3 e1, PS)	68%	target mRNA inhibition (0.02 µM): 18%; target mRNA inhibition (0.078 µM): 21%; target mRNA inhibition (0.313 µM): 38%; target mRNA inhibition (1.25 µM): 62%; target mRNA inhibition (5 µM): 76%
ACAGCATCAAGACATT (sugars k3 d10 k3, PS)	53%	–
ACAGGATAGAGCACAT (sugars k3 d10 k3, PS)	44%	–
ACAGTAAAATTATGCC (sugars kkdddddddddkekek, PS)	28%	–
ACAGUAAAATTATGCC (sugars k3 d1 m1 d8 k3, PS)	24%	–

Sequence	target mRNA inhibition (1 µM)	also measured
ACATACCACTCTTCTC (sugars k3 d10 k3, PS)	35%	–
ACATAGGCTTAGTGTA (sugars k3 d10 k3, PS)	0%	–
ACATUGCAGTTATTAG (sugars k3 d1 m1 d8 k3, PS)	26%	–
ACCAAACTTCCAGCAG (sugars k3 d9 k3 e1, PS)	36%	–
ACCAAGAGGGTTTTTA (sugars k3 d10 k3, PS)	7%	–
ACCCTTAACAAACCTC (sugars k3 d10 k3, PS)	36%	–
ACCGCGCTTATTAATA (sugars k3 d10 k3, PS)	4%	–
ACCTAATAACTACATG (sugars k3 d10 k3, PS)	0%	–
ACCTCTAAGTTAGCCC (sugars k3 d10 k3, PS)	28%	–
ACGAAGCCTGAATGCC (sugars k3 d10 k3, PS)	52%	–
ACGACTCCAAGTAGGA (sugars k3 d10 k3, PS)	24%	–
ACGACTTCATCTGTCT (sugars k3 d10 k3, PS)	8%	–
ACGATGTGGCCATGAT (sugars k3 d10 k3, PS)	52%	–
ACGGTGATCAAATGTA (sugars k3 d9 k3 e1, PS)	41%	–
ACGGUGATCAAATGTA (sugars k3 d1 m1 d8 k3, PS)	18%	–
ACTAACCAATTATATG (sugars k3 d10 k3, PS)	6%	–
ACTATCAGAACAGTTC (sugars k3 d10 k3, PS)	62%	–
ACTCCAAGTAGGAGTA (sugars k3 d10 k3, PS)	0%	–
ACTCTATAATAAGGTA (sugars k3 d10 k3, PS)	42%	–
